# Assay results reported in article PMC12418703, “Avenanthramides and avenacosides as biomarkers of oat intake: a pharmacokinetic study of solid and liquid oat consumption under single and repeated dose conditions” (Nutrition Journal, 2025).
# Read-outs that look alike come from different tables or passages of the source.
# What was measured:
# [1] = test system: Feacalibacterium prausnitzii; assay: Association of F. prausnitzii relative abundance at baseline with Cmax and AUC strata (logistic regression); parameters: species or system humans; settings: liquid, solid, or combined; single dose phase I
# Protocol: DNA was extracted from approximately 35 mg of each of the 451 fecal samples using the NucleoSpin Soil kit (Macherey-Nagel, 740780.250 M), following the manufacturer’s instructions. DNA yield was quantified using the Qubit 1X dsDNA Broad Range assay kit (Thermo Fisher Scientific, Q33266). For metagenomic shotgun sequencing, libraries were prepared with the MGIEasy Fast FS DNA Library Prep Set (MGI Tech Co., Ltd., 940-000030-00, Werheim, Germany), using 400 ng of DNA per sample. The library preparation process included DNA shearing for 12.5 min, followed by end repair, A-tailing, and magnetic bead-based cleanup. Adapter ligation and cleanup were then performed, followed by PCR amplification and magnetic bead-based size selection of the final library product. Library quality was assessed using the Qubit 1X dsDNA HS Assay Kit (Thermo Fisher Scientific, Q33231) and the Agilent High Sensitivity D1000 Assay Kit (Agilent Technologies, 5067–5584 and 5067–5585, Santa Clara, CA, USA). Pooled libraries were circularized, barcoded, and used as templates for DNA nanoball preparation. The nanoballs were then analyzed on the DNBSEQ-T7 platform (MGI Tech Co., Ltd.) using the DNBSEQ-T7RS High-throughput Sequencing Set (FCL PE150), according to the manufacturer’s guidelines.
# Raw metagenomic reads underwent quality control to remove low-quality sequences, adapters, and contaminants using Fastp (version 0.23.2, default parameters). High-quality reads were filtered to exclude human reads (GRCh38_noalt_as) using Bowtie2 [38] (version 2.5.3). The quality-filtered reads were then aligned to the taxonomy database using MetaPhlAn (version 4.0.6, default parameters) to generate relative abundance profiles. For inclusion in the analysis, a species was required to be present in at least three samples.
# For the seven metabolites AVE A, AVE B, AVA 2c, AVA 2f, AVA 2fd, AVA 2p, AVA 2pd analysed at phase I after the single dose of oat products, Cmax and area under the curve (AUC) were stratified based on less than the median or more or equal to the […]. Thereafter, for each metabolite, it was investigated whether the relative abundance of F. prausnitzii at baseline could predict the strata since this bacterium has previously been reported to be responsible for production of their dihydro-metabolites. Logistic regression with a binomial distribution and a logistic link function was used to separately analyze the liquid and solid products. When analyzing liquid and solid products together, a generalized linear mixed model with a binomial distribution and a logistic link function was used, with identity included as a random factor.
# [2] = Plasma pharmacokinetics after a single dose of liquid or solid oat product (compartmental PK model); format: in vivo, humans; parameters: V/F: unit not given here; settings: for Cmax / half-life / k el / Tmax: both sexes, oral; for Cmax / half-life / k el: human, plasma; for Cmax / half-life / k el / Tmax / T1/2 / ka / V/F / AUC(norm): single dose; for k el: elimination rate (Table 2), read-out: ke (converted); for Tmax: human plasma, derived from PK model; for V, population estimate (RSE%) / ka, population estimate (RSE%) / ke, population estimate (RSE%): Table S1 compartmental model; for ka: absorption rate (Table 2); for V/F: distribution volume over bioavailability; for AUC(norm): normalized for nmol intake
# From the text: A non-blinded, randomized two-way crossover study with two different oat products (solid or liquid) was designed to investigate the AVA and AVE PK after a single dose and after repeated dosing at three different doses, for respective food (Fig. 2). Since this is the first study of its kind, it is impossible to make any formal calculation of the number of subjects needed to show meaningful differences in plasma biomarker concentrations, since the variation is unknown. However, similar studies aimed for BFI discovery and validation of dose-response have typically used 5–30 subjects. We therefore considered 23 individuals as a good compromise between feasibility and possibilities to assess variation in biomarker concentrations, estimate pharmacokinetic parameters, dose response and performing modelling with good precision. A scientist not involved in the study, conducted the randomization using the RAR method (RandomizeR package) in R software environment and provided lists with allocated treatment sequences. The study was conducted in two phases. In the first phase, blood samples were drawn from 11 men and 12 women for 24 h after consumption of a single dose of either a solid or a liquid oat product on-site. Breakfast and lunch were also provided on-site. A single dose of solid (62 g of oat flakes) or liquid (196 mL of oat drink) containing individual AVAs and AVEs shown in Table 1 were consumed, respectively. Blood plasma samples were drawn for 24 h (0 h, 0.25 h, 0.5 h, 0.75 h, 1 h, 1.5 h, 2 h, 3 h, 4 h, 5 h, 6 h, 7 h, 8 h, 24 h). After the 24 h, at the second phase of the study, the corresponding product was further consumed three times per day for four days at either a low, medium, or high intake dose (98, 196 and 392 mL for liquid oats and 31, 62 and 123 g for oat flakes with corresponding contents of AVAs and AVEs (Table 1) in a Latin square design. Therefore, a total number of 8 participants (2 males and 6 females) were randomized to the low dose, 9 participants (3 males and 6 females) for medium dose and 6 participants (3males and 3 females) for the high dose. Participants consumed the provided products at home and were instructed to follow their habitual diets with restriction on the consumption of oat products. A list of relevant foods was provided as a guide. The oat flakes were pre-portioned into individual bags and could be consumed without heating, mixed with yoghurt, cottage cheese, sour milk or any liquid. Participants were instructed to consume the full amount, including the liquid or food the oats were mixed with. Liquid oat products were weighed prior consumption, and they were to be consumed without any additional food. In all cases the time of oat intake was recorded in a food journal. On the fifth day of phase II, a fasting sample was drawn. Fecal samples were collected at baseline and at the end of phase II of the intervention. Between each study period, there was a wash-out period of eight days where participants consumed their habitual diet. After the washout, participants started with a single dose and repeated dosing for the other product in the same way as for the first. The participants were instructed to avoid foods containing oats during the last three days prior to the start of the study and during the last three days of the wash-out period. Compliance was assessed based on information provided in a compliance journal during the study weeks as well as through 2-day food records. The oat products used in the study were provided to the participants. The flakes for the single dose were consumed with water ad lib and for the repeated dose they could be mixed with water, yoghurt, milk, sour milk or cottage cheese with the condition that all the amount of the oat product is consumed. The oat drink was consumed without any other product.
# All blood samples were collected into EDTA-coated tubes by a trained nurse. […]
# [3] = 62 g of oat flakes, solid oat product (62 g oat flakes)
# [4] = 196 mL of oat drink, liquid oat product (196 mL oat drink)
association between F. prausnitzii abundance at baseline and Cmax and AUC [1],SMILES,"Cmax ([2]; 62 g of oat flakes, solid)","half-life ([2]; 62 g of oat flakes, solid)","k el ([2]; 62 g of oat flakes, solid)","Cmax ([2]; 196 mL of oat drink, liquid)","half-life ([2]; 196 mL of oat drink, liquid)","k el ([2]; 196 mL of oat drink, liquid)","Tmax [2, 3]","Tmax [2, 4]","V, population estimate (RSE%) ([2]; liquid)","ka, population estimate (RSE%) ([2]; liquid)","ke, population estimate (RSE%) ([2]; liquid)",T1/2 ([2]; liquid),ka ([2]; liquid),V/F ([2]; liquid),"V, population estimate (RSE%) ([2]; solid)","ka, population estimate (RSE%) ([2]; solid)","ke, population estimate (RSE%) ([2]; solid)",ka ([2]; solid),V/F ([2]; solid),other results
no significant associations,COc1cc(/C=C/C=C/C(=O)Nc2ccc(O)cc2C(=O)O)ccc1O [AVA 2fd],7.34 ± 0.78 nM,1.65 ± 0.13 h,0.000117 s⁻¹,2.46 ± 0.25 nM,1.3 h,0.000144 s⁻¹,1.53 ± 0.07 h,1.01 ± 0.04 h,210 (13) L,3.6 (10) 1/h,0.52 (14) 1/h,1.33 ± 0.10 h,3.6 ± 0.2^1 1/h,211 ± 21^2,320 (22) L,2.2 (10) 1/h,0.42 (17) 1/h,2.2 ± 0.12 h⁻¹,314 ± 32,
no significant associations,O=C(/C=C/C=C/c1ccc(O)cc1)Nc1ccc(O)cc1C(=O)O [AVA 2pd],16.8 ± 1.78 nM,2.63 ± 0.2 h,7.22e-05 s⁻¹,3.1 ± 0.31 nM,2.5 h,7.78e-05 s⁻¹,2.31 ± 0.1 h,1.6 ± 0.07 h,130 (16) L,2.4 (9) 1/h,0.30 (13) 1/h,2.45 ± 0.19 h,2.40 ± 0.1^1 1/h,131 ± 13^2,190 (22) L,1.5 (10) 1/h,0.27 (17) 1/h,1.48 ± 0.10 h⁻¹,189 ± 19,
,"CC1OC(OC2C(OC3CCC4(C)C(=CCC5C4CCC4(C)C5CC5OC6(CCC(C)(COC7OC(CO)C(O)C(O)C7O)O6)C(C)C54)C3)OC(CO)C(OC3OC(CO)C(O)C(O)C3O)C2O)C(O)C(O)C1O (centres unmarked) [AVE A, Avenacoside A]",2.03 ± 0.22 nM,3.32 ± 0.26 h,5.83e-05 s⁻¹,1.31 ± 0.14 nM,3.2 h,6.39e-05 s⁻¹,1.78 ± 0.08 h,2.51 ± 0.11 h,5900 (3) L,1.4 (3) 1/h,0.21 (10) 1/h,3.17 ± 0.24 h,1.4 ± 0.1^1 1/h,6718 ± 686^2,9700 (2) L,2.7 (8) 1/h,0.22 (6) 1/h,2.3 ± 0.13 h⁻¹,"11,055 ± 1130",
,"CC1OC(OC2C(OC3CCC4(C)C(=CCC5C4CCC4(C)C5CC5OC6(CCC(C)(COC7OC(CO)C(O)C(O)C7O)O6)C(C)C54)C3)OC(CO)C(OC3OC(CO)C(O)C(OC4OC(CO)C(O)C(O)C4O)C3O)C2O)C(O)C(O)C1O (centres unmarked) [AVE B, Avenacoside B]",0.64 ± 0.07 nM,3.76 ± 0.29 h,5e-05 s⁻¹,0.44 ± 0.05 nM,2.5 h,7.5e-05 s⁻¹,3.29 ± 0.14 h,2.98 ± 0.13 h,2200 (3) L,0.41 (9) 1/h,0.27 (3) 1/h,2.56 ± 0.20^2 h,0.41 ± 0.02 h⁻¹,2079 ± 212,2600 (21) L,0.45 (22) 1/h,0.19 (20) 1/h,0.46 ± 0.03 h⁻¹,2606 ± 266,AUC(norm) ([2]; liquid): 1.8 ± 0.2 nM·h; AUC(norm) ([2]; solid): 2.1 ± 0.3 nM·h
